Data set [1] concerns the target diacylglycerol acyltransferase. Put plainly: Inhibitory action against rat-originated diacylglycerol acyltransferase (rat liver microsomal fraction). It counts as biochemical. The settings on record: [1-14C]palmitoyl-CoA, 23° C., 15 minutes. Here is the method:
(1) Inhibitory Action against Rat-originated Diacylglycerol Acyltransferase
The activity of diacylglycerol acyltransferase was determined in accordance with the method of Mayorek and BarTana, [J. Biol. Chem., 260, 6528-6532 (1985)] with partial modification.
Namely, a microsomal fraction prepared from rat liver was used as the enzyme source. To a 175 mM Tris-HCl buffer (pH 8.0) containing 8 mM of MgCl2, 1 mg/ml of bovine serum albumin and 2.5 mM of diisopropyl fluorophosphate, there were added 0.75 mM of dioleoylglycerol and 30 μM of [1^−14C] palmitoyl-CoA (0.02 μCi) and the total volume was adjusted to 200 μl, whereupon the enzymatic reaction mixture was incubated at 23° C. for 15 minutes. The total lipids were extracted with chloroform/methanol (1/2) mixture and each lipid was separated by a TLC (with Kiselgel GF254 and a developing solvent of petroleum ether/diethyl ether/acetic acid of 80/20/1), followed by measurement of the radioactivity of the triacylglycerol fraction using RI RADIO-SCANNER (manufactured by AMBIS System Inc., U.S.A.) to determine the diacylglycerol acyltransferase activity.

The test system of data set [2] is Raji cell originating from human Burkitt lymphoma (triacylglycerol synthesis). Put plainly: Inhibitory action against synthesis of triacylglycerol in human-originated Raji cells. It counts as cell-based. The settings on record: [1-14C]oleic acid, 37° C., 30 minutes; for IC50: Homo sapiens, 0.5 h, read-out: drug concentration corresponding to 50% inhibition of triacylglycerol synthesis. Here is the method:
(2) Inhibitory Action against Synthesis of Triacylglycerol in Human-originated Cells (Raji Cell originating from Human Burkitt Lymphoma)
The assessment of the influence of the substances on triacylglycerol synthesis was performed in accordance with the method of Tomoda et al. [J. Biol. Chem., 266, 4214-4219 (1991)] using human-originated cells (Raji cell originated from human Burkitt lymphoma). A Raji cell dispersion of 2.7×10^6 cells per milliliter containing […] [1^−14C] oleic acid (0.02 μCi) was filled up to a total volume 200 μl, whereupon the reaction proceeded at 37° C. for 30 minutes. The total lipids were extracted with a chloroform/methanol (2/1) mixture. Then, the activity was measured in the same manner as in the “inhibitory action against rat-originated diacylglycerol-acyltransferase”.
The calculation of the drug concentration corresponding to 50% inhibition of triacylglycerol synthesis gives a value of 10 μg/ml for all the substances KF-1040T4A, KF-1040T4B, KF-1040T5A and KF-1040T5B.

A further data set has as its target T1, acid sphingomyelinase (Homo sapiens, UniProt P17405).
T1 construct: an acid sphingomyelinase originating from human placenta (a product of Sigma Co.) was used as the enzyme source; purchased Sigma Co; host or cells: human placenta (tissue-derived enzyme)
T1 sequence (P17405 47-631): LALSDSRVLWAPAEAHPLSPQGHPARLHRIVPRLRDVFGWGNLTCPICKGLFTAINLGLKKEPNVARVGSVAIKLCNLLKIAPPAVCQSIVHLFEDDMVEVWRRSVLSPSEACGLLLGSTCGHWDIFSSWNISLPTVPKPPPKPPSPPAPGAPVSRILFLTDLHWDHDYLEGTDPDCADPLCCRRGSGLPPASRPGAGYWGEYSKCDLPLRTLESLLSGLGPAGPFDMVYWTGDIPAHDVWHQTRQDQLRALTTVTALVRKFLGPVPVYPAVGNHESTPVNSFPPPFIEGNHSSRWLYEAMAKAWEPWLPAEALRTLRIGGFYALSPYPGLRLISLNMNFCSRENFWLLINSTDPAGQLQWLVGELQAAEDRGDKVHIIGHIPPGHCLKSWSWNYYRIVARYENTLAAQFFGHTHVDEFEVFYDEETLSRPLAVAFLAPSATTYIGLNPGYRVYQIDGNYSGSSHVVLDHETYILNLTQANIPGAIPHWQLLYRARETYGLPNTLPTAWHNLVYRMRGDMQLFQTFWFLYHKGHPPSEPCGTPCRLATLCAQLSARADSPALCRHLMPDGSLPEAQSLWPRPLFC
The experiment in a line: Influence on human placenta-originated acid sphingomyelinase. The settings on record: human placenta enzyme (Sigma), pH 5.0, 37° C., 30 minutes; read-out: concentration corresponding to 50% inhibition of acid sphingomyelinase (converted). It counts as biochemical. Here is the method: (4) Influence on Human Placenta-originated Acid Sphingomyelinase
The assessment of the influence of the substances on human placenta-originated acidic sphingomyelinase was performed in accordance with the method of Jones et al. [Biochem. Journal, 195, 373-382 (1981)] with partial modification.
Thus, an acid sphingomyelinase originating from human placenta (a product of Sigma Co.) was used as the enzyme source and thereto were added 250 mM of sodium acetate buffer solution (pH 5.0), 0.1% of NP-40 (a product of Sigma Co.), and 25 μM [N-methyl-^3H] sphingomyelin (0.006 μCi), and the mixture was filled up to a total volume of 50 μl. After reaction at 37° C. for 30 minutes, 200 μl of chloroform/methanol mixture (1/2 in volume ratio) was added thereto to separate the reaction product [^3H] phosphocholine from the starting material [^3H] sphingomyelin. The upper layer was taken up into a […]. The amount of [^3H] phosphocholine was quantitatively determined by a liquid scintillation counter to estimate the acid sphingomyelinase activity.

The next data set can be described thus: Solubility in solvents. It counts as physicochemical.

Values after ≈ are worked out from the molar mass of the structure shown.

Regarding `CCC(C)CC(C)CC(C)C(OC1OC(CO)C(O)C(O)C1O)C(C)/C=C(\C)C(O)C(C)/C=C(\C)C(O)C(C)/C=C(\C)C(=O)OCC(O)C(O)C(O)CO` (single isomer, unassigned) [KF-1040T4A], in data set [1], the “drug concentration corresponding to 50% inhibition of diacylglycerol acyltransferase” value is 13.2 µg/mL. Moreover, the IC50 was 10 µg/mL (≈ 12.9 µM) in data set [2] and 300 µM on acid sphingomyelinase. The “Solubility in solvents: methanol, benzene, chloroform and ethyl acetate” value (“Solubility in solvents: methanol” below) in “Solubility in solvents” is recorded as “soluble”. The “Solubility in solvents: water and hexane” value in “Solubility in solvents” was “slightly soluble”.

`CCC(C)CC(C)CC(C)C(OC1OC(CO)C(O)C(O)C1O)C(C)/C=C(\C)C(O)C(C)/C=C(\C)C(O)C(C)/C=C(\C)C(=O)OCC(O)C(O)C(O)CO` (single isomer, unassigned) [KF-1040T4B]: the “drug concentration corresponding to 50% inhibition of diacylglycerol acyltransferase” value in data set [1] is 11.6 µg/mL. Further, the “drug concentration corresponding to 50% inhibition of triacylglycerol synthesis” value in data set [2] came to 10 µg/mL. Besides, the IC50 at acid sphingomyelinase is 90.1 µM. In addition, in the data set “Solubility in solvents”, the “Solubility in solvents: methanol” value is listed as “soluble”; the “Solubility in solvents: water and hexane” value is given as “slightly soluble”.

As for `CCC(C)CC(C)CC(C)C(OC1OC(COC(C)=O)C(O)C(O)C1O)C(C)/C=C(\C)C(O)C(C)/C=C(\C)C(O)C(C)/C=C(\C)C(=O)OCC(O)C(O)C(O)CO` (single isomer, unassigned) [KF-1040T5A], the “drug concentration corresponding to 50% inhibition of diacylglycerol acyltransferase” value in data set [1] came to 18.0 µg/mL. The IC50 in data set [2] stood at 10 µg/mL (≈ 12.2 µM). Besides, the IC50 at acid sphingomyelinase was 239 µM. In the data set “Solubility in solvents”, the “Solubility in solvents: methanol” value is “soluble”; the “Solubility in solvents: water and hexane” value is given as “slightly soluble”.

In the case of `CCC(C)CC(C)CC(C)C(OC1OC(COC(C)=O)C(O)C(O)C1O)C(C)/C=C(\C)C(O)C(C)/C=C(\C)C(O)C(C)/C=C(\C)C(=O)OCC(O)C(O)C(O)CO` (single isomer, unassigned) [KF-1040T5B], the “drug concentration corresponding to 50% inhibition of diacylglycerol acyltransferase” value in data set [1] is 14.7 µg/mL. The “drug concentration corresponding to 50% inhibition of triacylglycerol synthesis” value in data set [2] was 10 µg/mL. In addition, on acid sphingomyelinase, the IC50 is 59.8 µM. Also, in the data set “Solubility in solvents”, the “Solubility in solvents: methanol” value is on record as “soluble”; the “Solubility in solvents: water and hexane” value is given as “slightly soluble”.

The record behind these values is patent US6608185B1, “Substances KF-1040T4A,KF-1040T4B, KF-1040T5A, and KF-1040T5B, and process for producing same” (Kitasato Institute, priority 2002, dated 2003).
